Data on 11 molecules can be found in patent US20240156790A1, “COMPOUNDS, COMPOSITIONS, AND METHODS FOR MODULATING FERROPTOSIS AND TREATING EXCITOTOXIC DISORDERS” (THE TRUSTEES OF COLUMBIA UNIVERSITY IN THE CITY OF NEW YORK, priority 2018, published 2024).

Data set [1] in a line: Microsomal Stability Assay (Examples 6 and 8). The data set is classed as in vitro ADME, mouse. As to conditions: for microsomal stability / half-life, in words: assessed over two hours; for half-life at 20 µM: CD-1, mouse, liver microsomes, pH 7.4, text, read-out: half-life in mouse liver microsomes. As to the method: (§1) To a 96-well polypropylene plate was added phosphate buffer (182.2 μL, pH 7.4, 100 mM) followed by addition of NADPH-regenerating system solution A (10 μL), and NADPH regenerating system solution B (2 μL) (Corning Gentest 3P NADPH regenerating system solution A (#451220) and B (#451200)). A stock solution of analog (0.8 μL. 5 mM) or fer-1 (positive control) was added and the mixture was warmed to 37° C. for 5 min. Mouse microsomes (CD-1, 20 mg/mL, Life Technologies) (5 μL, thawed in 37° C. water bath before use) were added. The resulting reaction mixture was kept at 37° C. with gentle agitation for the duration of the experiment. At selected time points (0, 1, 5, 10, 20, 30, 60 and 120 min) aliquots (15 μL) were withdrawn from the plate and quenched upon addition to cold methanol (60 μL), containing an internal standard (5 μM) in a separate 96-well polypropylene plate. At the completion of the final time-point, the samples were centrifuged at 4,000 rpm for 5 min at 4° C. The supernatant (40 μL) was withdrawn and transferred to a sample vial with insert. The samples were analyzed by LC-MS. LC-MS analysis was performed on a platform comprising a Thermo Scientific Dionex Ultimate 3000 and a Bruker amaZon SL equipped with an electrospray ionization source controlled by Bruker Hystar 3.2. Chromatographic separation was performed by injecting 5 μL of the sample onto an Agilent Eclipse Plus C18 column (2.1×50 mm, 3.5 μm) maintained at 20° C. The flow rate was maintained at 400 μL/min. The initial flow conditions were 80% solvent A (water containing 0.1% acetic acid) and 20% solvent B (methanol containing 0.1% acetic acid). Solvent B was raised to 80% over 0.50 min by 1.50 min. Solvent B was raised to 100% by 5.00 min and held there for 3.25 min. […] All analogs were detected in positive mode as [M+H]*. The percent of compound remaining at each time-point was calculated as the ratio of the integrated compound peak over the internal standard peak and standardized to the t=0 time-point. Values were plotted in GraphPad Prism 9 and fit with a one phase decay.
as §1, with “and NADPH-regenerating” for “and NADPH regenerating”, “rpm (1872 g)” for “rpm”, “[M+H]*. […]” for “[M+H]*. The percent of compound remaining at each time-point was calculated as the ratio of the integrated compound peak over the internal standard peak and standardized to the t=0 time-point. Values were plotted in GraphPad Prism 9 and fit with a one phase decay.”
A general note: Liver microsomes are a subcellular fraction often used to study metabolism.

The subject of a further data set is HT-1080 cells. Kind of data set: Cell viability assays in HT-1080 cells, ferroptosis induced by IKE or RSL3 (Example 8). The format is cell-based. Particulars: for IC50: Homo sapiens, HT-1080, 48 h. As to the method: Cell culture assays were incubated at 37° C. with 5% CO2. HT-1080 cells were grown in DMEM (Corning) supplemented with 10% FBS (Life Technologies), 1% Penicillin-Streptomycin 10,000 U/mL (Gibco), and 1% MEM Non-Essential Amino Acids Solution 100× (Gibco). For cell viability assays, cells were trypsinized, counted, and seeded into 384-well white polypropylene plates at 1,000 cells/well, unless otherwise specified. After allowing cells to adhere overnight, compounds in DMSO stocks were arrayed in a 16-point dilution series prepared in a mother plate, and treated from a daughter plate, [DMSO]=0.28%. After 24 or 48 h, 50% CellTiter-Glo (Promega) 50% cell culture medium was added to each well and incubated at room temperature with shaking for 15 min. Luminescence was measured using a Victor X5 plate reader (PerkinElmer). All cell viability data were normalized to the DMSO vehicle condition. […] All 384w measurements were performed in triplicate
We first evaluated the efficacy of four pyridine analogs, TH-2-9-1, TH-2-31, TH-2-37-1, and TH-2-37-2, in suppressing ferroptosis induced by IKE and RSL3 in HT-1080 cells. […] We sought to determine whether incorporation of pyridine changed stability in mouse liver microsomes.

The test system of data set [2] is N27 rat dopaminergic cells. Kind of data set: Suppression of ferroptosis induced by RSL3 in N27 cells (CellTiter-Glo viability). The format is cell-based. As to conditions: Rattus norvegicus, N27, 24 h, Table 3; ^d 24 hr treatment, 1,000 cells/well seeded; read-out: IC50.
The nature of data set [3]: TH-2-31, TH-4-55-2, TH-4-67 PK Study (IP, IV, PO; plasma and brain). As to conditions: mouse, in vivo. The format is in vivo, C57BL/6 mice. As to the method:
C57BL/6 mice (8-weeks of age and ˜25 g weight) were weighed before injection and divided into groups of two male and female mice per cage. Compound was dissolved in 5% DMSO/95% of 1:1 [(65% v/v of 25% w/v 2-hydroxypropyl-3-cyclodextrin (Cayman Chemical) dissolved in 20% EtOH, 30% v/v Poly(ethylene glycol)-400 (Sigma Aldrich 202398), 5% v/v Tween 80 (Fluka 59924)):MilliQ water] to create a 2 mg/mL solution. The same formulation without compound was used as a vehicle control. The solution was sterilized using a […] Steriflip filter unit (Thomas Scientific 1189Q46). Mice were dosed IP, IV, and PO routes of administration and euthanized by CO2 asphyxiation for 3 min at 0, 1, 2, 4, 8, and 24 h after administration. To ensure that the vehicle was well-tolerated 4 mice were treated with vehicle and euthanized 4 h after administration. ˜0.5 mL of blood was collected via cardiac puncture and immediately put in K3 EDTA microtubes ([…] 41.1504.105) and kept on ice. Organs were harvested, placed in Eppendorf tubes, and frozen on dry ice. Blood samples were centrifuged for 10 min at 2,100×g at 4° C., then plasma was transferred to a clean tube and frozen on dry ice. Organ samples were weighed and placed in hard tissue homogenizing tubes (Omni International 19-628) and a volume of DEPC-treated nuclease-free water (IBI Scientific IB42200) was added to make a 500 mg/mL solution and homogenized using the Omni Bead Ruptor 4 at speed 5 for 30 seconds. Compound was extracted from plasma or organ homogenate by adding 900 μL acetonitrile to 100 μL plasma or organ homogenate. Samples were mixed by vortexing and allowed to extract overnight at 4° C. prior to mixing for at least 5 min by rotating at room temperature, vortexing, and sonicating for at least 30 second prior to centrifugation for 10 min at 4,000×g and 4° C. The supernatant was then transferred to a glass vial and analyzed by UPLC-MS described below. The concentration of each analog was determined against a standard curve with a nonlinear fit and the data plot in GraphPad Prism 9 and fit with a one phase decay.
Samples from animal studies were analyzed via UPLC-MS using a Waters Xevo G2-Xs QTof Mass spectrometer equipped with an Acquity UPLC. Chromatographic separation was carried out at 50° C. on a Acquity UPLC BEH C18 column (1.7 μm, 2.1 mm×50 mm, pore size 130 Å) over a 4.5 min gradient elution. The flowrate was held constant at 0.8 mL/min. Mobile phase A consisted of water and mobile phase B consisted of ACN both containing 0.1% formic acid. After injection, the gradient was held at 50% A for 0.25 min. For the next minute, the gradient was ramped in a linear fashion to 100% B and held at this composition for 0.5 min. The eluent composition returned to the initial condition in 0.01 min and the column was re-equilibrated for 2.74 min before the next injection. Injection volumes were 0.5 μL (TH-2-31 40 mg/kg) and 1 μL for all other conditions. The Xevo G2-Xs was operated in positive electrospray ionization (ESI) mode. A capillary voltage and sampling cone voltage of 0.5 kV and 30 V were used. The source and desolvation temperatures were kept at 120° C. and […], respectively. Nitrogen was used as the desolvation gas with a flowrate of 750 L/hr. The protonated molecular ion of leucine encephalin ([M+H]^+, m/z 556.2771 was used as a lock mass for mass accuracy and reproducibility. Leucine enkephalin was introduced to the lock mass at a concentration of 2 ng/mL (50% ACN containing 0.1% formic acid), and a flow rate of […]. To avoid signal saturation, the signal transmission was attenuated to <10%, based off the signal intensity of the highest standard concentration for the duration of the run. The data was collected over the mass range m/z 50 to 1200 Da with an acquisition time of 0.1 seconds per scan. The retention time for each analog is detailed below. […]

[4] abbreviates: ^b 2 μM IKE, 48 hours, 1,000 cells/well.
Setting [5] is: ^c 0.2 μM RSL3, 48 hours, 1,000 cells/well.

“Also recorded” adds a separate entry of the source.

On to `Cc1noc(-c2ccc(NC34CC5CC(CC(C5)C3)C4)c(NC3CCCCC3)c2)n1` [PHB4083, N1-((3s,5s,7s)-adamantan-1-yl)-N2-cyclohexyl-4-(3-methyl-1,2,4-oxadiazol-5-yl)benzene-1,2-diamine], for which, in data set [1], the “microsomal stability / half-life, in words” value is reported as “half-lives greater than two hours”. Besides, the “potency relative to fer-1 at suppressing ferroptosis, in words” value in the data set with HT-1080 cells was “more potent than fer-1”. In the same order, the values of `CC(C)(C)OC(=O)c1cc(NC2CCCCC2)c(NC23CC4CC(CC(C4)C2)C3)cc1Cl` [AZII11, tert-butyl 4-(((3s,5s,7s)-adamantan-1-yl)amino)-2-chloro-5-(cyclohexylamino)benzoate] are “half-lives greater than two hours” and “less potent than fer-1”. A word on the half-life: it is the time needed for the level to fall by half in the phase considered. For `CC(C)(C)OC(=O)c1ccc(NC2CCCCC2)c(Nc2ccccc2)c1` [PHB4081, tert-butyl 4-(cyclohexylamino)-3-(phenylamino)benzoate], the half-life at 20 µM in data set [1] was less than 1 h.

`CC(C)(C)OC(=O)c1cc(NC2CCCCC2)c(NC23CC4CC(CC(C4)C2)C3)cc1F` [AZIII8, tert-butyl 4-(((3s,5s,7s)-adamantan-1-yl)amino)-5-(cyclohexylamino)-2-fluorobenzoate]: in data set [1], the “microsomal stability / half-life, in words” value is “half-lives greater than two hours”. Moreover, in the data set on HT-1080 cells, the “potency relative to fer-1 at suppressing ferroptosis, in words” value is “more potent than fer-1”. Take `Cc1noc(-c2ccc(NC3CCCCC3)c(N)c2)n1` [PHB4078, N1-cyclohexyl-4-(3-methyl-1,2,4-oxadiazol-5-yl)benzene-1,2-diamine]: the half-life at 20 µM in data set [1] is less than 1 h. Take `Cc1cc(NC23CC4CC(CC(C4)C2)C3)c(N)cc1C(=O)OC(C)(C)C` [AZIII4, tert-butyl 4-(((3s,5s,7s)-adamantan-1-yl)amino)-5-amino-2-methylbenzoate]: the half-life at 20 µM in data set [1] is less than 1 h. The IC50 is the point on the concentration scale where inhibition reaches its midpoint. Turning to `Cc1noc(-c2cnc(NC34CC5CC(CC(C5)C3)C4)c(NC3CCCCC3)c2)n1` [TH-4-100-2, N^2-((3s,5s,7s)-adamantan-1-yl)-N^3-cyclohexyl-5-(3-methyl-1,2,4-oxadiazol-5-yl) pyridine-2,3-diamine], the IC50 in data set [2] was 18.9 nM. Moreover, the “tolerability / adverse observations after dosing” value in data set [3] was “less impaired immediately following injection and recovered more quickly; also recorded: less impaired immediately following injection and recovered quicker”. As for `CC(C)(C)OC(=O)c1cc(N)c(NC23CC4CC(CC(C4)C2)C3)cc1F` [AZII78, tert-butyl 4-(((3s,5s,7s)-adamantan-1-yl)amino)-5-amino-2-fluorobenzoate], the half-life at 20 µM in data set [1] was less than 1 h. `Cc1noc(-c2ccc(NC34CC5CC(CC(C5)C3)C4)c(N)c2)n1` [PHB4066, N1-((3s,5s,7s)-adamantan-1-yl)-4-(3-methyl-1,2,4-oxadiazol-5-yl)benzene-1,2-diamine]: the half-life at 20 µM in data set [1] is less than 1 h.

Consider `Cc1noc(-c2cc(NC3CCCCC3)cnc2NC2CCCCC2)n1` [TH-2-37-1, N^2,N^5-dicyclohexyl-3-(3-methyl-1,2,4-oxadiazol-5-yl)pyridine-2,5-diamine], for which the “potency relative to fer-1 at suppressing ferroptosis, in words” value in the data set with HT-1080 cells is “potencies greater than fer-1”. The results for the IC50 with HT-1080 cells (setting [4]) and with HT-1080 cells (setting [5]) were 7.5 nM and 4.3 nM, respectively. In the same order, the values of `Cc1noc(-c2cc(NC(C)C)cnc2NC2CCCCC2)n1` [TH-2-37-2, N^2-cyclohexyl-N^5-isopropyl-3-(3-methyl-1,2,4-oxadiazol-5-yl)pyridine-2,5-diamine] are “potencies greater than fer-1”, 5.4 nM and 3.8 nM.
